Data reported in patent US9128097B2, “Method and kit for assessing viable cells” (ChemoMetec A/S, priority 2008, dated 2015).

Key:
HEK293 cells = test: NAM/PI staining of outgrown HEK293 cells, fluorescence microscopy; type: cell-based, Human; conditions: 10 μg/mL NAM
Method: Materials and Methods. HEK293 cells were grown at 37° C. in a humidified air atmosphere with 5% CO2 in DMEM (Invitrogen, #31966) supplemented with 10% heat-inactivated fetal bovine serum (Invitrogen, #10108-165). Cells were harvested with 0.5 mL of trypsin (Invitrogen, #25300) and neutralized with 5 mL medium (DMEM+10% FCS) two days after they had reached full confluency. These outgrown HEK293 cells (cell density 1.6×10^6, 78% viable determined using the NC-100 NucleoCounter system following the manufacturer's (ChemoMetec) protocol) were stained with 10 μg/mL NAM (Sigma, #01665). Another cell sample were treated with 0.25% Triton X-100 (Sigma, #T9284) and hereafter added 10 μg/mL NAM. After staining, each cell sample was loaded into a NucleoCassette, containing the DNA stain propidium iodide (PI). The cells were investigated using an Olympus IX50 fluorescence microscope, and images were captured using a Lumenera CCD camera and in-house developed software. PI and NAM fluorescence were detected using, respectively, U-MWG2 (green long pass: 510-550 nm) and U-MNUA2 (UV band pass, 330-385 nm) filter cubes (Olympus).

Jurkat (JM) cells = test: Staining of proliferating Jurkat cells with labelling agent and propidium iodide, fluorescence microscopy; type: cell-based; conditions: 10 μL agent (100 μg pr. mL DMSO) added to 90 μL cells, only exception PI positive cells
Method: (§1) Materials and Methods. Jurkat (JM) cells were grown at 37° C. in a humidified air atmosphere with 5% CO2 in RPMI (Invitrogen, #61870) supplemented with 10% heat-inactivated fetal bovine serum (Invitrogen, #10108-165). 90 μL proliferating Jurkat cells (cell density 1.2×10^6, 99% viable determined using the NC-100 NucleoCounter system following the manufacturer's (ChemoMetec A/S) protocol) were added 10 μL NAM (N-(9-acridinyl)maleimide, Sigma, #01665, CAS no. 49759-20-8) dissolved in DMSO (100 μg NAM pr. mL DMSO) and mixed by pipetting. Cells were loaded into a NucleoCassette, containing the DNA stain propidium iodide (PI). The cells were investigated using an Olympus IX50 fluorescence microscope, and images were captured using a Lumenera CCD camera and in-house developed software. PI and NAM fluorescence were detected using, respectively, U-MWG2 (green long pass: 510-550 nm) and U-MNUA2 (UV band pass, 330-385 nm) filter cubes (Olympus).
as §1, with “1.0×10^6,” for “1.2×10^6,”, “(ChemoMetec)” for “(ChemoMetec A/S)”, “CPM (7-diethylamino-3-[4′-maleimidylphenyl]-4-methylcoumarin, Chemodex Ltd.,” for “NAM (N-(9-acridinyl)maleimide, Sigma, #01665,”, “76877-33-3)” for “49759-20-8)”, “CPM” for “NAM”
as §1, with “1.1×10^6, 98%” for “1.2×10^6, 99%”, “(ChemoMetec)” for “(ChemoMetec A/S)”, “PM (N-(1-Pyrenyl)maleimide, Sigma P7908” for “NAM (N-(9-acridinyl)maleimide, Sigma, #01665,”, “42189-56-0)” for “49759-20-8)”, “PM” for “NAM”, “Cells were loaded into a NucleoCassette, containing the DNA stain propidium iodide (PI).” left out
Materials and Methods. […] 90 μL proliferating Jurkat cells (cell density 1.1×10^6, 98% viable determined using the NC-100 NucleoCounter system following the manufacturer's (ChemoMetec) protocol) were added 10 μL CPI (7-diethylamino-3-((4′-(iodoacetyl)amino)phenyl)-4-methylcoumarin, Sigma 78264 CAS no. 76877-34-4) dissolved in DMSO (100 μg CPI pr. mL DMSO) and mixed by pipetting. […] The cells were investigated using an Olympus IX50 fluorescence microscope, and images were captured using a Lumenera CCD camera and in-house developed software. PI and CPI fluorescence were detected using, respectively, U-MWG2 (green long pass: 510-550 nm) and U-MNUA2 (UV band pass, 330-385 nm) filter cubes (Olympus). […]

**Q.** How did the “staining of Triton X-100 treated cells” value (HEK293 cells; HEK293 cells treated with 0.25% Triton X-100) turn out when `O=C1C=CC(=O)N1c1c2ccccc2nc2ccccc12` [NAM, N-(9-acridinyl)maleimide] was run?
**A.** Its value is “NAM negative”.

**Q.** And the “staining of cells versus PI” value (HEK293 cells; outgrown HEK293 cells, 78% viable)?
**A.** The value was “NAM and PI were found to complementary stain the outgrown HEK293 cells”.

**Q.** What about the “staining of cells (UV filter) versus PI positive cells” value (Jurkat (JM) cells) of the same compound?
**A.** The value was “nearly all cells in the proliferating Jurkat cell culture were stained by NAM”.
